These molecules were tested against T1, GST-RIPK1 (recombinant GST-RIPK1 kinase domain (residues 1-327)) (Homo sapiens, UniProt Q13546) (assay: RIPK1-ADP-Glo Enzymatic Assay). Details: ten-point titration, top compound concentration of 100000 nM; 25 nM GST-RIPK1, 300 μM ATP, 3 μM dephosphorylated-MBP; 30 min pre-incubation, 150 min reaction.
T1 construct: recombinant GST-RIPK1 kinase domain (residues 1-327) enzyme produced from baculovirus-transfected Sf21 cells; host or cells: baculovirus-transfected Sf21 insect cells
T1 sequence (Q13546 1-327): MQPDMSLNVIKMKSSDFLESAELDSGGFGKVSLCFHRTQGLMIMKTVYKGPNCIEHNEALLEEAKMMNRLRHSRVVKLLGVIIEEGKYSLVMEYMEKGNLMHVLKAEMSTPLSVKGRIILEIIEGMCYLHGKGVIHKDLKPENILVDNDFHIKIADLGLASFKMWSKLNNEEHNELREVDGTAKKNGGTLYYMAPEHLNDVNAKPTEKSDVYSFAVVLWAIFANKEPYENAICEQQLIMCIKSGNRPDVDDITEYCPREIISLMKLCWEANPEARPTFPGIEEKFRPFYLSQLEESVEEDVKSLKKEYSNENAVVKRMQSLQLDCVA
Type: biochemical
Outline: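 ADP-Glo luminescence quantifies ADP formed over 150 minutes by 25 nM Sf21-produced GST-RIPK1 (1-327) using 300 μM ATP and 3 μM dephosphorylated MBP, following 30-minute compound preincubation at 1% DMSO. Ten-point 1:3 series from 100000 nM gave EC50 via four-parameter sigmoidal regression.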

Structure (SMILES) | EC50
O=C1N2[C@@H](CC[C@H]2c2ccc(F)cc2)O[C@]12C[C@H](Oc1cc(-c3nn[nH]n3)ccn1)C2 [Example 10.7, (1r,3R,5′S,7a′R)-3-((4-(2H-tetrazol-5-yl)pyridin-2-yl)oxy)-5′-(4-fluorophenyl)tetrahydro-3′H-spiro[cyclobutane-1,2′-pyrrolo[2,1-b]oxazol]-3′-one] | 27 nM
O=C1N2[C@@H](CC[C@H]2c2cc(F)cc(F)c2)O[C@]12C[C@H](Oc1ncnn3c(Br)ccc13)C2 [Example 11.1, (1r,3R,5′S,7a′R)-3-((7-bromopyrrolo[2,1-f][1,2,4]triazin-4-yl)oxy)-5′-(3,5-difluorophenyl)tetrahydro-3′H-spiro[cyclobutane-1,2′-pyrrolo[2,1-b]oxazol]-3′-one] | 12 nM
N#Cc1ccc2c(O[C@H]3C[C@@]4(C3)O[C@@H]3CC[C@@H](c5cc(F)cc(F)c5)N3C4=O)ncnn12 [Example 11.2, 4-(((1r,3R,5′S,7a′R)-5′-(3,5-difluorophenyl)-3′-oxotetrahydro-3′H-spiro[cyclobutane-1,2′-pyrrolo[2,1-b]oxazol]-3-yl)oxy)pyrrolo[2,1-f][1,2,4]triazine-7-carbonitrile] | 16 nM
N#Cc1ccc2c(O[C@H]3C[C@@]4(C3)O[C@@H]3CC[C@@H](c5ccc(F)cc5)N3C4=O)ncnn12 [Example 11.3, 4-(((1r,3R,5′S,7a′R)-5′-(4-fluorophenyl)-3′-oxotetrahydro-3′H-spiro[cyclobutane-1,2′-pyrrolo[2,1-b]oxazol]-3-yl)oxy)pyrrolo[2,1-f][1,2,4]triazine-7-carbonitrile] | 19 nM
O=C1N2[C@@H](CC[C@H]2c2cnccn2)OC12CC(Oc1cc(F)ccc1F)C2 (stereo partly drawn) [Example 12.6, (5′S,7a′R)-3-(2,5-difluorophenoxy)-5′-(pyrazin-2-yl)tetrahydro-3′H-spiro[cyclobutane-1,2′-pyrrolo[2,1-b][1,3]oxazol]-3′-one] | 16 nM
O=C(O[C@H]1C[C@@]2(C1)O[C@@H]1CC[C@@H](c3cc(F)cc(F)c3)N1C2=O)c1ccccn1 [Example 13, (1r,3R,5′S,7a′R)-5′-(3,5-difluorophenyl)-3′-oxotetrahydro-3′H-spiro[cyclobutane-1,2′-pyrrolo[2,1-b]oxazol]-3-yl picolinate] | 165 nM
O=C(O[C@H]1C[C@@]2(C1)O[C@@H]1CC[C@@H](c3cc(F)cc(F)c3)N1C2=O)c1ccccc1 [Example 14, (1r,3R,5′S,7a′R)-5′-(3,5-difluorophenyl)-3′-oxotetrahydro-3′H-spiro[cyclobutane-1,2′-pyrrolo[2,1-b]oxazol]-3-yl benzoate] | 13 nM
O=C1N2C(CC[C@H]2c2cnccn2)OC12CC(OCc1cnn3cccnc13)C2 (stereo partly drawn) [Example 18.4, (5′S)-5′-(pyrazin-2-yl)-3-[(pyrazolo[1,5-a]pyrimidin-3-yl)methoxy]tetrahydro-3′H-spiro[cyclobutane-1,2′-pyrrolo[2,1-b][1,3]oxazol]-3′-one] | 45 nM
O=C1N2[C@@H](CC[C@H]2c2cnccn2)OC12CC(OCc1cnn(C34CC(C3)C4)c1)C2 (stereo partly drawn) [Example 18.6, (5′S, 7a′R)-3-{[1-(bicyclo[1.1.1]pentan-1-yl)-1H-pyrazol-4-yl]methoxy}-5′-(pyrazin-2-yl)tetrahydro-3′H-spiro[cyclobutane-1,2′-pyrrolo[2,1-b][1,3]oxazol]-3′-one] | 365 nM
O=C1N2C(CC[C@H]2c2cnccn2)OC12CC(OCc1cccc(CCn3cnnc3)c1)C2 (stereo partly drawn) [Example 18.9, (5′S)-5′-(pyrazin-2-yl)-3-({3-[2-(4H-1,2,4-triazol-4-yl)ethyl]phenyl}methoxy)tetrahydro-3′H-spiro[cyclobutane-1,2′-pyrrolo[2,1-b][1,3]oxazol]-3′-one] | 100 nM
CCC(C)Oc1cccc(COC2CC3(C2)OC2CC[C@@H](c4cnccn4)N2C3=O)n1 (stereo partly drawn) [Example 18.13, (5′S)-3-({6-[(butan-2-yl)oxy]pyridin-2-yl}methoxy)-5′-(pyrazin-2-yl)tetrahydro-3′H-spiro[cyclobutane-1,2′-pyrrolo[2,1-b][1,3]oxazol]-3′-one] | 46 nM
N#Cc1ccc(COC2CC3(C2)OC2CC[C@@H](c4cnccn4)N2C3=O)c2cccnc12 (stereo partly drawn) [Example 18.14, 5-({[(5′S)-3′-oxo-5′-(pyrazin-2-yl)tetrahydro-3′H-spiro[cyclobutane-1,2′-pyrrolo[2,1-b][1,3]oxazol]-3-yl]oxy}methyl)quinoline-8-carbonitrile] | 16 nM
Cc1cnn(-c2cnc(COC3CC4(C3)OC3CC[C@@H](c5cnccn5)N3C4=O)cn2)c1 (stereo partly drawn) [Example 18.15, (5′S)-3-{[5-(4-methyl-1H-pyrazol-1-yl)pyrazin-2-yl]methoxy}-5′-(pyrazin-2-yl)tetrahydro-3′H-spiro[cyclobutane-1,2′-pyrrolo[2,1-b][1,3]oxazol]-3′-one] | 76 nM
O=C1N2C(CC[C@H]2c2cnccn2)OC12CC(OCc1csc3ncccc13)C2 (stereo partly drawn) [Example 18.18, (5′S)-5′-(pyrazin-2-yl)-3-[(thieno[2,3-b]pyridin-3-yl)methoxy]tetrahydro-3′H-spiro[cyclobutane-1,2′-pyrrolo[2,1-b][1,3]oxazol]-3′-one] | 18 nM

Other lines, results leading:

EC50 | Structure (SMILES)
100 nM | O=C1N2[C@@H](CC[C@H]2c2cnccn2)O[C@]12C[C@@H](OCc1cccnc1)C2 [Example 18.1, (1S,3S,5′S,7a′R)-5′-(pyrazin-2-yl)-3-(pyridin-3-ylmethoxy)tetrahydro-3′H-spiro[cyclobutane-1,2′-pyrrolo[2,1-b]oxazol]-3′-one]
66 nM | O=C1N2C(CC[C@H]2c2cnccn2)OC12CC(OCc1cnc3nncn3c1)C2 (stereo partly drawn) [Example 18.2, (5′S)-5′-(pyrazin-2-yl)-3-[([1,2,4]triazolo[4,3-a]pyrimidin-6-yl)methoxy]tetrahydro-3′H-spiro[cyclobutane-1,2′-pyrrolo[2,1-b][1,3]oxazol]-3′-one]
969 nM | O=C1N2C(CC[C@H]2c2cnccn2)OC12CC(OCc1cnn(C3CC3)c1)C2 (stereo partly drawn) [Example 18.3, (5′S)-3-[(1-cyclopropyl-1H-pyrazol-4-yl)methoxy]-5′-(pyrazin-2-yl)tetrahydro-3′H-spiro[cyclobutane-1,2′-pyrrolo [2,1-b][1,3]oxazol]-3′-one]
307 nM | Cn1cc(COC2CC3(C2)OC2CC[C@@H](c4cnccn4)N2C3=O)cn1 (stereo partly drawn) [Example 18.5, (5′S)-3-[(1-methyl-1H-pyrazol-4-yl)methoxy]-5′-(pyrazin-2-yl)tetrahydro-3′H-spiro[cyclobutane-1,2′-pyrrolo[2,1-b][1,3]oxazol]-3′-one]
52 nM | O=C1N2C(CC[C@H]2c2cnccn2)OC12CC(OCc1cnn(-c3ccccc3)c1)C2 (stereo partly drawn) [Example 18.7, (5′S)-3-[(1-phenyl-1H-pyrazol-4-yl)methoxy]-5′-(pyrazin-2-yl)tetrahydro-3′H-spiro[cyclobutane-1,2′-pyrrolo [2,1-b][1,3]oxazol]-3′-one]
466 nM | CCOc1ncc(COC2CC3(C2)OC2CC[C@@H](c4cnccn4)N2C3=O)cn1 (stereo partly drawn) [Example 18.8, (5′S)-3-[(2-ethoxypyrimidin-5-yl)methoxy]-5′-(pyrazin-2-yl)tetrahydro-3′H-spiro[cyclobutane-1,2′-pyrrolo[2,1-b][1,3]oxazol]-3′-one]
12 nM | N#CCc1cccc(COC2CC3(C2)OC2CC[C@@H](c4cnccn4)N2C3=O)c1 (stereo partly drawn) [Example 18.10, [3-({[(5′S)-3′-oxo-5′-(pyrazin-2-yl)tetrahydro-3′H-spiro[cyclobutane-1,2′-pyrrolo[2,1-b][1,3]oxazol]-3-yl]oxy}methyl)phenyl]acetonitrile]
89 nM | O=C1N2C(CC[C@H]2c2cnccn2)OC12CC(OCc1ccc(C(F)F)cn1)C2 (stereo partly drawn) [Example 18.11, (5′S)-3-{[5-(difluoromethyl)pyridin-2-yl]methoxy}-5′-(pyrazin-2-yl)tetrahydro-3′H-spiro[cyclobutane-1,2′-pyrrolo[2,1-b][1,3]oxazol]-3′-one]
181 nM | O=C1N2C(CC[C@H]2c2cnccn2)OC12CC(OCc1nnc(Cc3ccccc3)s1)C2 (stereo partly drawn) [Example 18.12, (5′S)-3-[(5-benzyl-1,3,4-thiadiazol-2-yl)methoxy]-5′-(pyrazin-2-yl)tetrahydro-3′H-spiro[cyclobutane-1,2′-pyrrolo[2,1-b][1,3]oxazol]-3′-one]
349 nM | CSc1nnc2ccc(COC3CC4(C3)OC3CC[C@@H](c5cnccn5)N3C4=O)cn12 (stereo partly drawn) [Example 18.16, (5′S)-3-{[3-(methylsulfanyl)[1,2,4]triazolo[4,3-a]pyridin-6-yl]methoxy}-5′-(pyrazin-2-yl)tetrahydro-3′H-spiro[cyclobutane-1,2′-pyrrolo[2,1-b][1,3]oxazol]-3′-one]
145 nM | CS(=O)(=O)c1ccc(COC2CC3(C2)OC2CC[C@@H](c4cnccn4)N2C3=O)cc1 (stereo partly drawn) [Example 18.17, (5′S)-3-{[4-(methylsulfonyl)phenyl]methoxy}-5′-(pyrazin-2-yl)tetrahydro-3′H-spiro[cyclobutane-1,2′-pyrrolo[2,1-b][1,3]oxazol]-3′-one]
110 nM | O=C1N2C(CC[C@H]2c2cnccn2)OC12CC(OCc1ccc3nccn3c1)C2 (stereo partly drawn) [Example 18.19, (5′S)-3-[(imidazo[1,2-a]pyridin-6-yl)methoxy]-5′-(pyrazin-2-yl)tetrahydro-3′H-spiro[cyclobutane-1,2′-pyrrolo[2,1-b][1,3]oxazol]-3′-one]

From patent US20250154173A1 (Merck Sharp & Dohme LLC, priority 2023, published 2025)
